# Residues, ends and D or L forms follow the SMILES beside them.
# What was measured:
# [1] = Toxicity in pre-clinical animal models; conditions: in vivo
# [2] = tested on: B16 melanoma cells; test: Boyden chamber invasion assay, B16 cells; type: cell-based; conditions: B16 mouse melanoma cells
# Procedure: FIG. 13A is a series of photomicrographs of B16 melanoma cells treated with IVMT-Rx-3 at varying concentrations, as well as a histogram showing quantification of the average percentage (of control) of invaded cells. Invasion was assayed using a Boyden chamber. *: Statistical significance (p<0.05).
# Invasive phenotype was measured using a Boyden Chamber Assay as described previously (6,8,18). Briefly, 25,000 cells were plated on the upper chamber of the trans well in FBS free media and allowed to invade the Matrigel layer towards the bottom chamber supplemented with complete media. Twenty-four hr. after plating, the invaded cells were fixed and counted under a bright field microscope.
# [3] = tested on: Src, P38 and IκB phosphorylation in A-375 and C8161.9 cells; test: Western blotting of signaling proteins, human melanoma cells; type: cell-based; conditions: 24 hours
# Procedure: FIG. 4B is a Western blot of C8161.9 and A-375 cells treated with indicated doses of IVMT-Rx-3 for 24 hours. Cell lysates were subjected to Western blotting analysis to determine the expression levels of various signaling proteins (as shown) associated with MDA-9/Syntenin: Src interactions. Western blotting densitometry and relative intensity of protein bands were calculated using Image J software. The values are provided.
# (§1) Western blotting was performed following a standard protocol as described previously (6,8,18,29). Antibodies used in this study were purchased from Cell Signaling Technology (Boston, MA): p-Src (Y416), total Src, matrix metalloproteinase-2 (MMP-2) and matrix metaloproteinase-9 (MMP-9), focal adhesion kinase (FAK), p IKKα/β (S176/180), total IKK, p P38 (T180/Y182) and total P38. MDA-9/Syntenin antibody was obtained from Abnova Inc. (Taiwan). β-actin (Sigma-Aldrich, St. Louis, MO) was used as an endogenous loading control. Fibronectin was purchased from EMD Millipore (Billerica, MA).
# [4] = biological target: T1, MDA-9/Syntenin (Homo sapiens, UniProt O00560); test: Microscale thermophoresis (MST) binding affinity; conditions: His-tagged recombinant MDA-9/Syntenin 175 nM, PBS-T pH 7.4, 25 °C, ± S.E., read-out: dissociation constant (KD)
# T1 sequence (O00560 1-298): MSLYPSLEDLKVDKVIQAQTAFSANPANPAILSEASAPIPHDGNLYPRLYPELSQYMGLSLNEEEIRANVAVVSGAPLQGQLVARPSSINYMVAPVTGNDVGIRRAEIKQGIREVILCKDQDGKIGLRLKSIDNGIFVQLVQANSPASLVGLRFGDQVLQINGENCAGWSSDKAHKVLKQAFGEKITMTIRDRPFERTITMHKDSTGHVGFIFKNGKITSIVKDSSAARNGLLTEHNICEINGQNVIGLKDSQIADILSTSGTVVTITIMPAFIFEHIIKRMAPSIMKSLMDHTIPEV
# Procedure: FIG. 1C is a binding curve of IVMT-Rx-3 bound to MDA-9/Syntenin. The binding constant Ka was measured from the binding curve generated through a microscale thermophoresis (MST) assay.
# Binding affinity was measured using microscale thermophoresis (MST) experiments performed on a Monolith NT. Automated instrument (NanoTemper Technologies GmbH, Munich, Germany). His-tagged MDA-9/Syntenin was first labeled with RED-tris-NTA (λEX-650 nm, λEM=670 nm; Cat #MO-LO18) according to the manufacturer's protocol. Briefly, 700 nM MDA-9 in 100 mM phosphate-buffered saline, pH 7.4, containing 0.05% Tween 20 (PBS-T) was added to an equal volume of 100 nM RED-tris-NTA in PBS-T and the mixture was incubated at room temperature for 30 min, centrifuged at 15,000 g for 10 min at 4 °C, and the supernatant containing the labeled protein was transferred to a new tube for use in affinity measurements. […] After a 10-min incubation, the samples were loaded into premium capillary chips and thermophoretic measurements were performed (25 °C, 27% excitation power, medium MST power, 20 s laser on) to follow changes in normalized fluorescence (Fnorm) at different IVMT-Rx-3 concentrations (FIG. 1C). These changes were analyzed using the standard hyperbolic binding isotherm (SigmaPlot) to obtain the affinity of IVMT-Rx-3 for MDA-9/Syntenin. […]
# [5] = tested on: Src and P38 in B16 melanoma cells; test: Western blotting, B16 cells; type: cell-based; conditions: B16 mouse melanoma cells, Western blot
# Procedure: as §1
# [6] = tested on: T cell, MDSC and Treg populations; test: Flow cytometry of immune cells in lungs of B16-injected mice; type: in vivo, mouse; conditions: 30 mg/kg I.P., 6 injections
# Source text: FIG. 6B is a series of histograms showing the number of nodules/lung, T cell populations (CD8^+IFN-γ^+) and myeloid-derived suppressor cells (MDSCs) in the lungs of the treatment groups described in FIG. 6A, as measured by flow cytometry. *: Statistical significance (p<0.05);**: Statistical significance (p<0.01);***: Statistical significance (p<0.001). ****: Statistical significance (p<0.0001).
# FIG. 15 is a histogram showing the comparative effect of DMSO and IVMT-Rx-3 on Treg populations, as measured by flow cytometry. 5×10^5 B16 cells were injected intravenously in C57BL/6 mice, and the mice were treated with DMSO control or IVMT-Rx-3 (intraperitoneal injection 30 mg/kg, 3× in a week, 6 injections in total). MDSC (Cd11^+Gr1^+) and Treg populations (CD4^+CD25^+[…]) in the lungs were measured by flow cytometry.
# Single cells were isolated from lungs by digestion with collagenase D and DNAse I. Cells were stained with the corresponding antibodies and fluorescence signals were measured with a BD Fortessa flow cytometer (BD Biosciences, San Jose, CA). Data were analyzed further with FACs DIVA software (BD Biosciences, San Jose, CA) (18). The antibodies used in this study were CD3, Gr1, CD11b, IFN-γ, CD45, CD8 (Biolegend, San Diego, CA, USA). CD4 (BD Biosciences, San Jose, CA, USA), CD25, and FOXP3 (eBiosciences, CA, USA).
# [7] = biological target: PDZ tandem protein Harmonin (Homo sapiens, UniProt Q9Y6N9); test: Binding to other PDZ domains: Harmonin; conditions: 36% identity to PDZ2 and 31% to PDZ1 of MDA-9/Syntenin
# Sequence of PDZ tandem protein Harmonin (Q9Y6N9 whole entry, the tested form may be a part): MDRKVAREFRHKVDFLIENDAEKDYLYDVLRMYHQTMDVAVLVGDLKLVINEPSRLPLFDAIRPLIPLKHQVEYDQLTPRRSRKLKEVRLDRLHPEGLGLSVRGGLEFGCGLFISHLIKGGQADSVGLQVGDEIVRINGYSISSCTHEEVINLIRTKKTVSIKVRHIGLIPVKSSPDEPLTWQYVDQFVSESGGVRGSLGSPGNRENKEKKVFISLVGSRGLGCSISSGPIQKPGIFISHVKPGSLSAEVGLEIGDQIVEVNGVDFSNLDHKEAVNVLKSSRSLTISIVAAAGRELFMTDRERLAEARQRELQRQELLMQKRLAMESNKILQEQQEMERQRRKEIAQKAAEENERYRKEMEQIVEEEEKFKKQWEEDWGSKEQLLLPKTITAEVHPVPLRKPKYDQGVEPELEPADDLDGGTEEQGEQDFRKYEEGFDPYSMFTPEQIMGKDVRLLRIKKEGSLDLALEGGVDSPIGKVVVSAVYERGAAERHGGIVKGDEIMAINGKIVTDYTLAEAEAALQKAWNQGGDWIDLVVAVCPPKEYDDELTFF
smiles,measurement,setting,value
Cc1cc(NC(=O)c2nc3[nH]c4c(c(=O)n3n2)CCC4)c(C)cc1NC(=O)CCOCCC(=O)N[C@H](C(=O)N[C@@H](CC(N)=O)C(=O)N[C@@H](CCC(=O)O)C(=O)N[C@@H](Cc1ccc(O)cc1)C(=O)N[C@@H](Cc1ccc(O)cc1)C(=O)N[C@H](C(=O)O)C(C)C)[C@@H](C)O [IVMT-Rx-3] (HELM PEPTIDE1{[Cc1cc(NC(=O)c2nc3[nH]c4c(c(=O)n3n2)CCC4)c(C)cc1NC(=O)CCOCCC(=O)[*:2]].T.N.E.Y.Y.V}$$$$V2.0),toxicity in pre-clinical animal models,[1],without provoking toxicity
same,invasion of B16 cells,[2],inhibition of invasion
same,Src activation (Src phosphorylation),[3],significantly reduced Src activation
same,"levels of p-P38, p-Src, and pIκB",[3],Reduced levels
same,Kd,[4],63 µM
same,Src and downstream P38,[5],downregulation of Src and downstream P38
same,IFN-γ-producing CD8+ T cell populations,[6],significant increase
same,MDSC populations,[6],suppression of MDSCs
same,Treg population,[6]; 5×10^5 B16 cells,no significant changes
same,binding to Harmonin,[7],did not bind appreciably
